Results: BigSolDB 2.1

CS(=O)(=O)c1ccc([C@@H](O)[C@@H](CF)NC(=O)C(Cl)Cl)cc1
solubility (mole fraction)
Conditions	283.15 K	288.15 K	293.15 K	298.15 K	303.15 K	308.15 K	313.15 K	318.15 K	323.15 K
in 2-ethylhexanol	0.000183	0.000254	0.000319	0.000383	0.000521	0.000635	0.000813	0.00103	0.00129
in ethanol	0.00151	0.00196	0.00244	0.00309	0.00369	0.00461	0.00562	0.00702	0.00842
in isobutanol	0.000293	0.000385	0.000497	0.000613	0.000819	0.00104	0.00137	0.0017	0.00224
in isopentanol	0.000487	0.000586	0.000765	0.000959	0.00123	0.00149	0.00191	0.00238	0.00285
in isopropanol	0.00061	0.00076	0.00101	0.00133	0.00169	0.00218	0.00278	0.00363	0.00457
in n-butanol	0.000512	0.000648	0.000821	0.00112	0.0014	0.00183	0.00236	0.00302	0.00385
in n-propanol	0.000974	0.00125	0.00165	0.00215	0.00269	0.00359	0.00437	0.00563	0.00712
in propionic acid	0.00027	0.000347	0.000447	0.000562	0.00073	0.000961	0.00123	0.0016	0.00211
